Laboratory results published in paper PMC11859928, “Design, Synthesis, and Antiproliferative Activity of Novel Indole/1,2,4-Triazole Hybrids as Tubulin Polymerization Inhibitors” (Pharmaceuticals, 2025).
Like-named read-outs stand apart in the source and are kept apart here.

Columns and labels:
MOLT-4 = test: NCI five-dose assay; format: cell-based, human; conditions: MOLT-4, Leukemia
HOP-62 = test: NCI five-dose assay; format: cell-based, human; conditions: HOP-62, Non-small cell lung cancer
NCI-H23 = test: NCI five-dose assay; format: cell-based, human; conditions: NCI-H23, Non-small cell lung cancer
COLO205 = test: NCI five-dose assay; format: cell-based, human; conditions: COLO205, Colon cancer
HCT-116 = test: NCI five-dose assay; format: cell-based, human; conditions: HCT-116, Colon cancer
KM12 = test: NCI five-dose assay; format: cell-based, human; conditions: KM12, Colon cancer
SNB-75 = test: NCI five-dose assay; format: cell-based, human; conditions: SNB-75, CNS cancer
U251 = test: NCI five-dose assay; format: cell-based, human; conditions: U251, CNS cancer
LOX IMVI = test: NCI five-dose assay; format: cell-based, human; conditions: Melanoma
MDA-MB-435 = test: NCI five-dose assay; format: cell-based, human; conditions: MDA-MB-435, Melanoma
SK-MEL-5 = test: NCI five-dose assay; format: cell-based, human; conditions: SK-MEL-5, Melanoma
UACC-257 = test: NCI five-dose assay; format: cell-based, human; conditions: Homo sapiens, UACC-257, Melanoma
UACC-62 = test: NCI five-dose assay; format: cell-based, human; conditions: UACC-62, Melanoma
OVCAR-3 = test: NCI five-dose assay; format: cell-based, human; conditions: Homo sapiens, OVCAR-3, Ovarian cancer
OVCAR-4 = test: NCI five-dose assay; format: cell-based, human; conditions: OVCAR-4, Ovarian cancer
TK-10 = test: NCI five-dose assay; format: cell-based, human; conditions: TK-10, Renal cancer
DU-145 = test: NCI five-dose assay; format: cell-based, human; conditions: DU-145, Prostate cancer
MCF7 = test: NCI five-dose assay; format: cell-based, human; conditions: MCF7, Breast cancer
HS 578T = test: NCI five-dose assay; format: cell-based, human; conditions: Breast cancer
BT-549 = test: NCI five-dose assay; format: cell-based, human; conditions: BT-549, Breast cancer
T-47D = test: NCI five-dose assay; format: cell-based, human; conditions: Breast cancer
Leukemia subpanel = test: NCI five-dose assay, subpanel mean; format: cell-based, human
Melanoma subpanel = test: NCI five-dose assay, subpanel mean; format: cell-based, human
Breast cancer subpanel = test: NCI five-dose assay, subpanel mean; format: cell-based, human
tubulin = biological target: T1, tubulin (Sus scrofa, UniProt P02550+P02554); test: Tubulin polymerization inhibitory assay; format: biochemical
T1 construct: purchased Cytoskeleton Inc., Denver, CO, USA
Description: The substances’ effects on tubulin polymerization were examined using the Tubulin Polymerization Assay Kit (Cytoskeleton Inc., Denver, CO, USA) according to the supplier’s instructions, with details described in Appendix A..
The activity of compounds on tubulin polymerization was investigated using the Tubulin Polymerization Assay Kit (Cytoskeleton Inc., Denver, CO, USA), which works via fluorescent reporter enhancement. […] Docetaxel and vincristine (Apoteket AB, Stockholm, Sweden) served as positive stabilizing and destabilizing controls. Both were used at a 3 µM concentration in PBS.

[1] = Homo sapiens, read-out: GI50 Conc. per Cell Lines
[2] = Homo sapiens, 48 h, read-out: LC50 (the source's name)
[3] = read-out: GI50 Conc. per Cell Lines

T1 sequence (P02554 whole entry): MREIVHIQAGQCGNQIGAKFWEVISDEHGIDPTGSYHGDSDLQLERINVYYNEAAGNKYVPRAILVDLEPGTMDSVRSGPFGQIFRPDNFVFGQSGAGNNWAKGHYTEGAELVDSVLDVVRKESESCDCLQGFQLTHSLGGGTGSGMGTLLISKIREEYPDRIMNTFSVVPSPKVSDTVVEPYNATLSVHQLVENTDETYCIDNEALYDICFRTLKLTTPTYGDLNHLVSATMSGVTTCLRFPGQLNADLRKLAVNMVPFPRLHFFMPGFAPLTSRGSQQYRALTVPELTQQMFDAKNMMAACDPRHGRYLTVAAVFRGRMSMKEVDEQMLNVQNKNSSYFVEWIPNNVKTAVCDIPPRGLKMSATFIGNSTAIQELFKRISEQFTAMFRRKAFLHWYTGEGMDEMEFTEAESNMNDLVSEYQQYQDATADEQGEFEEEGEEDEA
T1 sequence (P02550 whole entry): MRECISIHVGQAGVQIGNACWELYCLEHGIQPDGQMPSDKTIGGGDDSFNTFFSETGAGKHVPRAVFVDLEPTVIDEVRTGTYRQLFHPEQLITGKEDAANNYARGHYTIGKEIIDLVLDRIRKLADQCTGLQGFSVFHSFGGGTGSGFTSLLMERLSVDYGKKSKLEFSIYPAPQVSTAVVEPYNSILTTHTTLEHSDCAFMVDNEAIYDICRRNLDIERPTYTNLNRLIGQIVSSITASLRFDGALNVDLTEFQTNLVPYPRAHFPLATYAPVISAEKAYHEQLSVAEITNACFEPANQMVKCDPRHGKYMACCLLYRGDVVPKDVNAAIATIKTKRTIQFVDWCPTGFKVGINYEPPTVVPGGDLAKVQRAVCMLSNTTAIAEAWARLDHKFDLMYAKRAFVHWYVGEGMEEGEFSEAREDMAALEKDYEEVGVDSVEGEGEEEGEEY

Cc1ccc(/C(CSc2nnc(-c3c[nH]c4ccccc34)n2-c2ccccc2)=N/O)cc1 [Compound 7h, (Z)-2-((5-(1H-Indol-3-yl)-4-phenyl-4H-1,2,4-triazol-3-yl)thio)-1-(p-tolyl)ethanone Oxime]
GI50 (MOLT-4; [1]): 2.04 µM
TGI Conc. per Cell Lines (MOLT-4): 4.23 µM
TGI Conc. per Cell Lines (HOP-62): 3.42 µM
CC50 (HOP-62; [2]): 6.93 µM
GI50 (HOP-62; [1]): 1.69 µM
CC50 (NCI-H23; [2]): > 100 µM
GI50 (NCI-H23; [1]): 10.1 µM
TGI Conc. per Cell Lines (NCI-H23): 52.20 µM
TGI Conc. per Cell Lines (COLO205): 37.40 µM
CC50 (COLO205; Homo sapiens, COLO 205, 48 h, read-out: LC50 (the source's name)): > 100 µM
GI50 (COLO205; Homo sapiens, COLO 205, read-out: GI50 Conc. per Cell Lines): 3.77 µM
TGI Conc. per Cell Lines (HCT-116): 3.65 µM
GI50 (HCT-116; [1]): 1.87 µM
CC50 (KM12; [2]): > 100 µM
GI50 (KM12; [1]): 8.64 µM
TGI Conc. per Cell Lines (KM12): >100 µM
CC50 (SNB-75; [2]): 5.48 µM
GI50 (SNB-75; [1]): 1.4 µM
TGI Conc. per Cell Lines (SNB-75): 2.77 µM
CC50 (U251; Homo sapiens, U-251, 48 h, read-out: LC50 (the source's name)): > 100 µM
GI50 (U251; Homo sapiens, U-251, read-out: GI50 Conc. per Cell Lines): 8.22 µM
TGI Conc. per Cell Lines (U251): >100 µM
CC50 (LOX IMVI; [2]): 5.73 µM
GI50 (LOX IMVI; [1]): 1.75 µM
TGI Conc. per Cell Lines (LOX IMVI): 3.17 µM
CC50 (MDA-MB-435; [2]): 5.72 µM
GI50 (MDA-MB-435; [1]): 1.63 µM
TGI Conc. per Cell Lines (MDA-MB-435): 3.05 µM
CC50 (SK-MEL-5; [2]): > 100 µM
GI50 (SK-MEL-5; [1]): 4.76 µM
TGI Conc. per Cell Lines (SK-MEL-5): 48.1 µM
CC50 (UACC-257; 48 h, read-out: LC50 (the source's name)): > 100 µM
GI50 (UACC-257; [3]): 2.57 µM
CC50 (UACC-62; [2]): 6.31 µM
GI50 (UACC-62; [1]): 1.69 µM
TGI Conc. per Cell Lines (UACC-62): 3.26 µM
LC50 (OVCAR-3; 48 h): > 100 µM
GI50 (OVCAR-3; [3]): 4.26 µM
LC50 (OVCAR-4; Homo sapiens, 48 h): 7.04 µM
GI50 (OVCAR-4; [1]): 1.75 µM
TGI Conc. per Cell Lines (OVCAR-4): 3.51 µM
CC50 (TK-10; [2]): 7.9 µM
GI50 (TK-10; [1]): 1.9 µM
TGI Conc. per Cell Lines (TK-10): 3.87 µM
TGI Conc. per Cell Lines (DU-145): 4.01 µM
GI50 (DU-145; [1]): 1.94 µM
LC50 (MCF7; Homo sapiens, 48 h): > 100 µM
GI50 (MCF7; [1]): 2.42 µM
TGI Conc. per Cell Lines (MCF7): 7.01 µM
TGI Conc. per Cell Lines (HS 578T): 4.82 µM
LC50 (HS 578T; Homo sapiens, 48 h): > 100 µM
GI50 (HS 578T; [1]): 2.07 µM
TGI Conc. per Cell Lines (BT-549): 3.03 µM
CC50 (BT-549; [2]): 5.78 µM
GI50 (BT-549; [1]): 1.59 µM
TGI Conc. per Cell Lines (T-47D): 4.75 µM
LC50 (concentration killing 50% of cells) (T-47D; Homo sapiens, T47D, 48 h): > 100 µM
GI50 (T-47D; Homo sapiens, T47D, read-out: GI50 Conc. per Cell Lines): 2.07 µM
GI50 (Leukemia subpanel; Homo sapiens, average sensitivity of all cell lines of the Leukemia subpanel, read-out: GI50 Subpanel MID b): 2.03 µM
GI50 Selectivity Ratio (MID a/MID b) (Leukemia subpanel; Leukemia subpanel): 1.47
GI50 (Melanoma subpanel; Homo sapiens, average sensitivity of all cell lines of the Melanoma subpanel, read-out: GI50 Subpanel MID b): 2.78 µM
GI50 Selectivity Ratio (MID a/MID b) (Melanoma subpanel; Melanoma subpanel): 1.08
GI50 Selectivity Ratio (MID a/MID b) (Breast cancer subpanel; Breast cancer subpanel): 1.58
GI50 (Breast cancer subpanel; Homo sapiens, average sensitivity of all cell lines of the Breast cancer subpanel, read-out: GI50 Subpanel MID b): 1.9 µM
%inhibition (tubulin; conc 0.01 (unit not given; IC50 from this curve in µg/ml)): 2.01%
%inhibition (tubulin; conc 0.1 (unit not given; IC50 from this curve in µg/ml)): 8.94%
%inhibition (tubulin; conc 1 (unit not given; IC50 from this curve in µg/ml)): 26.1%
%inhibition (tubulin; conc 10 (unit not given; IC50 from this curve in µg/ml)): 49.9%
%inhibition (tubulin; conc 100 (unit not given; IC50 from this curve in µg/ml)): 76.7%
IC50 (tubulin; read-out: Tub. IC50±SD (converted)): 18.4 µM
IC50 (tubulin; read-out: Tubulin Inhibitory Effect, IC50): 18.4 ± 0.7 µM
